Reference: ChEMBL document CHEMBL1697692, “Developing structure-activity relationships for the prediction of hepatotoxicity” (Chem Res Toxicol, 2010)

Test system: Hepatotoxicity
Assay: Literature-mined public compounds from Greene et al multi-species hepatotoxicity modelling dataset

Molecule | Hepatotoxicity
CC(=O)OCC1=C(C(=O)[O-])N2C(=O)[C@@H](NC(=O)Cc3cccs3)[C@H]2SC1.[Na+] [CEPHALOTHIN SODIUM] | HH: Evidence of human hepatotoxicity
CC1=CC(=O)c2ccccc2C1=O [MENADIONE] | AH: Evidence for animal hepatotoxicity but not tested in humans
Cc1cc(CC(=O)O)n(C)c1C(=O)c1ccc(Cl)cc1 [ZOMEPIRAC] | NE: No evidence of hepatotoxicity in any species
Nc1nc2ncc(CNc3ccc(C(=O)N[C@@H](CCC(=O)O)C(=O)O)cc3)nc2c(=O)[nH]1 [FOLIC ACID] | NE: No evidence of hepatotoxicity in any species
CC(=O)N[C@@H](CS)C(=O)O [ACETYLCYSTEINE] | NE: No evidence of hepatotoxicity in any species
COc1cc(NC(C)CCCN)c2ncccc2c1.O=P(O)(O)O.O=P(O)(O)O (configuration not stated) [PRIMAQUINE PHOSPHATE] | WE: Weak evidence (<10 case reports) of human hepatotoxicity
CCC(=O)OCC(=O)[C@@]1(OC(=O)CC)[C@@H](C)C[C@H]2[C@@H]3CCC4=CC(=O)C=C[C@]4(C)[C@@]3(Cl)[C@@H](O)C[C@@]21C [BECLOMETHASONE DIPROPIONATE] | NE: No evidence of hepatotoxicity in any species
CC(C)(C(=O)O)c1ccc(C(O)CCCN2CCC(C(O)(c3ccccc3)c3ccccc3)CC2)cc1 (configuration not stated) [FEXOFENADINE] | NE: No evidence of hepatotoxicity in any species
C#C[C@]1(OC(C)=O)CC[C@H]2[C@@H]3CCC4=C[C@@H](OC(C)=O)CC[C@@H]4[C@H]3CC[C@@]21C [ETHYNODIOL DIACETATE] | HH: Evidence of human hepatotoxicity
CN(C)C=O [DIMETHYLFORMAMIDE] | AH: Evidence for animal hepatotoxicity but not tested in humans
CCN1CCN(C(=O)N[C@@H](C(=O)N[C@@H]2C(=O)N3C(C(=O)O)=C(CSc4nnnn4C)CS[C@H]23)c2ccc(O)cc2)C(=O)C1=O.O.O [CEFOPERAZONE DIHYDRATE] | NE: No evidence of hepatotoxicity in any species
Cn1c(=O)c2[nH]cnc2n(C)c1=O.O [THEOPHYLLINE] | NE: No evidence of hepatotoxicity in any species
CNCCc1ccccn1.Cl.Cl [BETAHISTINE HYDROCHLORIDE] | HH: Evidence of human hepatotoxicity
CC(C)NNC(=O)c1ccncc1 [IPRONIAZID] | HH: Evidence of human hepatotoxicity
CCC[C@@H]1C[C@@H](C(=O)N[C@@H]([C@H]2O[C@H](SC)[C@H](O)[C@@H](O)[C@H]2O)[C@H](C)Cl)N(C)C1.Cl [CLINDAMYCIN HYDROCHLORIDE] | HH: Evidence of human hepatotoxicity
O=C(O)c1cc(-c2ccccc2)nc2ccccc12 [CINCHOPHEN] | HH: Evidence of human hepatotoxicity
ClC(Cl)=C(Cl)C(Cl)=C(Cl)Cl [HEXACHLOROBUTADIENE] | AH: Evidence for animal hepatotoxicity but not tested in humans
COc1c(N2CCNC(C)C2)c(F)cc2c(=O)c(C(=O)O)cn(C3CC3)c12 (configuration not stated) [GATIFLOXACIN] | WE: Weak evidence (<10 case reports) of human hepatotoxicity
C[C@]12C=CC(=O)C=C1CC[C@@H]1[C@@H]2C(=O)C[C@@]2(C)[C@H]1CC[C@]2(O)C(=O)CO [PREDNISONE] | WE: Weak evidence (<10 case reports) of human hepatotoxicity
CN1C[C@H](C(=O)N[C@]2(C)O[C@@]3(O)[C@@H]4CCCN4C(=O)[C@H](Cc4ccccc4)N3C2=O)C=C2c3cccc4[nH]cc(c34)C[C@H]21.CN1C[C@H](C(=O)N[C@]2(C)O[C@@]3(O)[C@@H]4CCCN4C(=O)[C@H](Cc4ccccc4)N3C2=O)C=C2c3cccc4[nH]cc(c34)C[C@H]21.O=C(O)C(O)C(O)C(=O)O [ERGOTAMINE TARTRATE] | NE: No evidence of hepatotoxicity in any species
CC(C(=O)O)c1ccc2oc(-c3ccc(Cl)cc3)nc2c1 (configuration not stated) [BENOXAPROFEN] | HH: Evidence of human hepatotoxicity

Molecule | Hepatotoxicity
Fc1ccc([C@@H]2CCNC[C@H]2COc2ccc3c(c2)OCO3)cc1 [PAROXETINE] | WE: Weak evidence (<10 case reports) of human hepatotoxicity
CCn1cc(C(=O)O)c(=O)c2ccc(C)nc21 [NALIDIXIC ACID] | HH: Evidence of human hepatotoxicity
COC(=O)C1=C(C)NC(C)=C(C(=O)OCCN(C)Cc2ccccc2)C1c1cccc([N+](=O)[O-])c1.Cl (configuration not stated) [NICARDIPINE HYDROCHLORIDE] | HH: Evidence of human hepatotoxicity
O=[N+]([O-])O[C@H]1CO[C@H]2[C@@H]1OC[C@H]2O[N+](=O)[O-] [ISOSORBIDE DINITRATE] | NE: No evidence of hepatotoxicity in any species
Cl.Nc1cc(Cl)cc(Cl)c1 | NE: No evidence of hepatotoxicity in any species
CS(=O)(=O)OCCOS(C)(=O)=O [ETHANE DIMETHANE SULFONATE] | AH: Evidence for animal hepatotoxicity but not tested in humans
CN(C)[C@@H]1C(O)=C(C(N)=O)C(=O)[C@@]2(O)C(O)=C3C(=O)c4c(O)ccc(Cl)c4[C@@H](O)[C@H]3C[C@@H]12.Cl [DEMECLOCYCLINE HYDROCHLORIDE] | HH: Evidence of human hepatotoxicity
CC(=O)c1ccc(S(=O)(=O)NC(=O)NC2CCCCC2)cc1 [ACETOHEXAMIDE] | HH: Evidence of human hepatotoxicity
COC(=O)C(c1ccccc1)C1CCCCN1 (configuration not stated) [METHYLPHENIDATE] | HH: Evidence of human hepatotoxicity
C#C[C@]1(O)CC[C@H]2[C@@H]3CCc4cc(O)ccc4[C@H]3CC[C@@]21C [ETHINYL ESTRADIOL] | HH: Evidence of human hepatotoxicity
NC(=O)NO [HYDROXYUREA] | HH: Evidence of human hepatotoxicity
CCCC(C)(F)F [2,2-DIFLUOROPENTANE] | AH: Evidence for animal hepatotoxicity but not tested in humans
CC[C@@]1(O)C[C@H](O[C@H]2C[C@H](N(C)C)[C@H](O[C@H]3C[C@H](O)[C@H](O[C@H]4CCC(=O)[C@H](C)O4)[C@H](C)O3)[C@H](C)O2)c2c(cc3c(c2O)C(=O)c2c(O)cccc2C3=O)[C@H]1C(=O)OC.Cl [ACLARUBICIN HYDROCHLORIDE] | WE: Weak evidence (<10 case reports) of human hepatotoxicity
C[C@]12CC[C@@H]3c4ccc(O)cc4CC[C@H]3[C@@H]1CC[C@@H]2O [ESTRADIOL] | WE: Weak evidence (<10 case reports) of human hepatotoxicity
COc1cc([C@@H]2c3cc4c(cc3[C@@H](O[C@@H]3O[C@@H]5CO[C@@H](C)O[C@H]5[C@H](O)[C@H]3O)[C@H]3COC(=O)[C@H]23)OCO4)cc(OC)c1O [ETOPOSIDE] | HH: Evidence of human hepatotoxicity
Nc1ncnc2c1ncn2[C@@H]1O[C@H](CO)[C@@H](O)[C@H]1O [ADENOSINE] | NE: No evidence of hepatotoxicity in any species
Clc1cc2c(cc1Cl)Oc1cc(Cl)c(Cl)cc1O2 [2,3,7,8-TETRACHLORODIBENZO-P-DIOXIN] | AH: Evidence for animal hepatotoxicity but not tested in humans
DICHROMATE | AH: Evidence for animal hepatotoxicity but not tested in humans
Cc1ccc2cc3c(ccc4ccccc43)c3c2c1CC3 [3-METHYLCHOLANTHRENE] | HH: Evidence of human hepatotoxicity
C[C@H](CS)C(=O)N1CCC[C@H]1C(=O)O [CAPTOPRIL] | HH: Evidence of human hepatotoxicity
CN1CCN(CCCN2c3ccccc3Sc3ccc(Cl)cc32)CC1.O=C(O)/C=C\C(=O)O.O=C(O)/C=C\C(=O)O [PROCHLORPERAZINE MALEATE] | HH: Evidence of human hepatotoxicity
